Measurements: ChEMBL document CHEMBL1125541, “Synthesis and antiviral evaluation of N-carboxamidine-substituted analogues of 1-beta-D-ribofuranosyl-1,2,4-triazole-3-carboxamidine hydrochloride” (J Med Chem, 1992)
≈ marks a conversion by molar mass, not a printed value. Where “and” joins values, the source holds several entries; their conditions need not be identical. Equal entries are not always repeated.

Test system: not listed separately
Test: Compound was tested in vitro for antiviral activity against respiratory syncitial virus (Concentration which was cytotoxic to 50% of uninfected cells)
Conditions: human respiratory syncytial virus, read-out: TC50 (the source's name)

`Cl.N=C(N)c1ncn([C@@H]2O[C@H](CO)[C@@H](O)[C@H]2O)n1` [TARIBAVIRIN HYDROCHLORIDE] showed a CC50 greater than 1000 µg/mL.

Same assay, conditions: respiratory syncytial virus, read-out: TC50 (the source's name)

In the case of `C/N=C(/N)c1ncn([C@@H]2O[C@H](CO)[C@@H](O)[C@H]2O)n1.Cl`, the CC50 is reported as greater than 1000 µg/mL.

Test system: not listed separately
Test: Compound was tested in vitro for antiviral activity against sandfly fever-Sicilian (SF) virus (Concentration required for the 50%inhibition of virus-induced cell death)
Assay type: functional
Conditions: not given

Going from `C/N=C(/N)c1ncn([C@@H]2O[C@H](CO)[C@@H](O)[C@H]2O)n1.Cl` to `Cl.N=C(N)c1ncn([C@@H]2O[C@H](CO)[C@@H](O)[C@H]2O)n1` [TARIBAVIRIN HYDROCHLORIDE], the IC50 falls from 104 µg/mL to 36 µg/mL (2.9-fold).

`C/N=C(\NC)c1ncn([C@@H]2O[C@H](CO)[C@@H](O)[C@H]2O)n1.Cl` and `COC(=N)c1ncn([C@@H]2O[C@H](CO)[C@@H](O)[C@H]2O)n1` are within 1.5-fold of each other in IC50: 94 µg/mL for the first, 98 µg/mL (≈ 380 µM) for the second.

Going from `CCCC/N=C(/N)c1ncn(C2O[C@H](CO)[C@@H](O)[C@H]2O)n1` (some centres undefined) to `NC(=O)CCC(/N=C(/N)c1ncn(C2O[C@H](CO)[C@@H](O)[C@H]2O)n1)C(=O)O` (some centres undefined), the IC50 rises from 73 µg/mL (≈ 244 µM) to 547 µg/mL (≈ 1470 µM) (7.5-fold).

Test system: dengue virus type 4
Test: Compound was tested in vitro for antiviral activity against dengue-4- virus (Concentration required for the 50%inhibition of virus-induced cell death)
Assay type: functional, organism-based
Conditions: not given

In the case of `Cl.N=C(N)c1ncn([C@@H]2O[C@H](CO)[C@@H](O)[C@H]2O)n1` [TARIBAVIRIN HYDROCHLORIDE], the IC50 is reported as 100 µg/mL.

Test system: not listed separately
Test: Compound was tested in vitro for antiviral activity against Punta Toro (PT) virus (Concentration required for the 50%inhibition of virus-induced cell death)
Assay type: functional
Conditions: not given

Compared with `C/N=C(/N)c1ncn([C@@H]2O[C@H](CO)[C@@H](O)[C@H]2O)n1.Cl`, `Cl.N=C(N)c1ncn([C@@H]2O[C@H](CO)[C@@H](O)[C@H]2O)n1` [TARIBAVIRIN HYDROCHLORIDE] is 3-fold lower in IC50: 250 µg/mL for the first, 83 µg/mL for the second.

`C/N=C(\NC)c1ncn([C@@H]2O[C@H](CO)[C@@H](O)[C@H]2O)n1.Cl` and `COC(=N)c1ncn([C@@H]2O[C@H](CO)[C@@H](O)[C@H]2O)n1` are within 1.5-fold of each other in IC50: 181 µg/mL for the first, 201 µg/mL (≈ 778 µM) for the second.

First: CCCC/N=C(/N)c1ncn(C2O[C@H](CO)[C@@H](O)[C@H]2O)n1 (some centres undefined)
Second: NC(=O)CCC(/N=C(/N)c1ncn(C2O[C@H](CO)[C@@H](O)[C@H]2O)n1)C(=O)O (some centres undefined)
The IC50 of the first is 66-fold lower: 41 µg/mL (≈ 137 µM) for the first, 2690 µg/mL (≈ 7220 µM) for the second.

Test system: not listed separately
Test: Compound was tested in vitro for antiviral activity against influenza A virus (Concentration which was cytotoxic to 50% of uninfected cells)
Assay type: organism-based
Conditions: read-out: TC50 (the source's name)

`C/N=C(/N)c1ncn([C@@H]2O[C@H](CO)[C@@H](O)[C@H]2O)n1.Cl` and `Cl.N=C(N)c1ncn([C@@H]2O[C@H](CO)[C@@H](O)[C@H]2O)n1` [TARIBAVIRIN HYDROCHLORIDE] cannot be ordered by CC50: greater than 1000 µg/mL for the first, greater than 1000 µg/mL for the second.

Test system: not listed separately
Test: Compound was tested in vitro for antiviral activity against parainfluenza type 3 virus (Concentration which was cytotoxic to 50% of uninfected cells)
Conditions: human respirovirus 3, uninfected cells; read-out: TC50 (the source's name)

Work on `C/N=C(/N)c1ncn([C@@H]2O[C@H](CO)[C@@H](O)[C@H]2O)n1.Cl` yielded a CC50 greater than 1000 µg/mL.

Test system: not listed separately
Test: Compound was tested in vitro for antiviral activity against vaccinia virus (Concentration which was cytotoxic to 50% of uninfected cells)
Assay type: organism-based
Conditions: orthopoxvirus vaccinia, read-out: TC50 (the source's name)

`C/N=C(/N)c1ncn([C@@H]2O[C@H](CO)[C@@H](O)[C@H]2O)n1.Cl` and `Cl.N=C(N)c1ncn([C@@H]2O[C@H](CO)[C@@H](O)[C@H]2O)n1` [TARIBAVIRIN HYDROCHLORIDE] cannot be ordered by CC50: greater than 320 µg/mL for the first, greater than 320 µg/mL for the second.

`C/N=C(\NC)c1ncn([C@@H]2O[C@H](CO)[C@@H](O)[C@H]2O)n1.Cl` gave a CC50 greater than 1000 µg/mL.

Test system: Vaccinia virus
Test: Compound was tested in vitro for antiviral activity against vaccinia virus (Concentration required for the 50%inhibition of virus-induced cell death)
Assay type: functional, organism-based
Conditions: Orthopoxvirus vaccinia

Compared with `C/N=C(/N)c1ncn([C@@H]2O[C@H](CO)[C@@H](O)[C@H]2O)n1.Cl`, `Cl.N=C(N)c1ncn([C@@H]2O[C@H](CO)[C@@H](O)[C@H]2O)n1` [TARIBAVIRIN HYDROCHLORIDE] is 3.4-fold lower in IC50: 198 µg/mL for the first, 59 µg/mL for the second.

Work on `C/N=C(\NC)c1ncn([C@@H]2O[C@H](CO)[C@@H](O)[C@H]2O)n1.Cl` yielded an IC50 of 184 µg/mL.

Test system: not listed separately
Test: Compound was tested in vitro for antiviral activity against sandfly fever-Sicilian (SF) virus (Concentration which was cytotoxic to 50% of uninfected cells)
Conditions: read-out: TC50 (the source's name)

Compared with `C/N=C(/N)c1ncn([C@@H]2O[C@H](CO)[C@@H](O)[C@H]2O)n1.Cl`, `Cl.N=C(N)c1ncn([C@@H]2O[C@H](CO)[C@@H](O)[C@H]2O)n1` [TARIBAVIRIN HYDROCHLORIDE] is lower in CC50: greater than 1000 µg/mL for the first, 800 µg/mL for the second.

First: C/N=C(\NC)c1ncn([C@@H]2O[C@H](CO)[C@@H](O)[C@H]2O)n1.Cl
Second: COC(=N)c1ncn([C@@H]2O[C@H](CO)[C@@H](O)[C@H]2O)n1
The CC50 of the first is higher: greater than 1000 µg/mL for the first, 840 µg/mL (≈ 3250 µM) for the second.

`CCCC/N=C(/N)c1ncn(C2O[C@H](CO)[C@@H](O)[C@H]2O)n1` (some centres undefined) and `NC(=O)CCC(/N=C(/N)c1ncn(C2O[C@H](CO)[C@@H](O)[C@H]2O)n1)C(=O)O` (some centres undefined) cannot be ordered by CC50: greater than 1000 µg/mL for the first, greater than 3200 µg/mL for the second.

Test system: Human respirovirus 3
Test: Compound was tested in vitro for antiviral activity against parainfluenza type 3 virus (Concentration required for the 50%inhibition of virus-induced cell death)
Assay type: functional, organism-based
Conditions: not given

Compound `C/N=C(/N)c1ncn([C@@H]2O[C@H](CO)[C@@H](O)[C@H]2O)n1.Cl` has an IC50 of 125 µg/mL.

Test system: not listed separately
Test: Compound was tested in vitro for antiviral activity against Punta Toro (PT) virus (Concentration which was cytotoxic to 50% of uninfected cells)
Conditions: read-out: TC50 (the source's name)

First: C/N=C(/N)c1ncn([C@@H]2O[C@H](CO)[C@@H](O)[C@H]2O)n1.Cl
Second: Cl.N=C(N)c1ncn([C@@H]2O[C@H](CO)[C@@H](O)[C@H]2O)n1 [TARIBAVIRIN HYDROCHLORIDE]
The CC50 of the first is higher: greater than 1000 µg/mL for the first, 752 µg/mL for the second.

Going from `C/N=C(\NC)c1ncn([C@@H]2O[C@H](CO)[C@@H](O)[C@H]2O)n1.Cl` to `COC(=N)c1ncn([C@@H]2O[C@H](CO)[C@@H](O)[C@H]2O)n1`, the CC50 falls from 2900 µg/mL to 744 µg/mL (≈ 2880 µM) (3.9-fold).

First: CCCC/N=C(/N)c1ncn(C2O[C@H](CO)[C@@H](O)[C@H]2O)n1 (some centres undefined)
Second: NC(=O)CCC(/N=C(/N)c1ncn(C2O[C@H](CO)[C@@H](O)[C@H]2O)n1)C(=O)O (some centres undefined)
The CC50 of the first is lower: 660 µg/mL (≈ 2200 µM) for the first, greater than 3200 µg/mL for the second.

Test system: Influenza A virus
Test: Compound was tested in vitro for antiviral activity against influenza A virus (Concentration required for the 50%inhibition of virus-induced cell death)
Assay type: functional, organism-based
Conditions: not given

`C/N=C(/N)c1ncn([C@@H]2O[C@H](CO)[C@@H](O)[C@H]2O)n1.Cl` showed an IC50 of 63 µg/mL.

Test system: not listed separately
Test: Compound was tested in vitro for antiviral activity against dengue-4-virus (Concentration which was cytotoxic to 50% of uninfected cells)
Conditions: dengue virus type 4, uninfected cells; read-out: TC50 (the source's name)

`C/N=C(\NC)c1ncn([C@@H]2O[C@H](CO)[C@@H](O)[C@H]2O)n1.Cl` and `COC(=N)c1ncn([C@@H]2O[C@H](CO)[C@@H](O)[C@H]2O)n1` cannot be ordered by CC50: greater than 250 µg/mL for the first, greater than 250 µg/mL for the second.

In the case of `Cl.N=C(N)c1ncn([C@@H]2O[C@H](CO)[C@@H](O)[C@H]2O)n1` [TARIBAVIRIN HYDROCHLORIDE], the CC50 is reported as 250 µg/mL.

Test system: Respiratory syncytial virus
Test: Compound was tested in vitro for antiviral activity against respiratory syncitial virus (Concentration required for the 50%inhibition of virus-induced cell death)
Assay type: functional, organism-based
Conditions: human respiratory syncytial virus

Compared with `C/N=C(/N)c1ncn([C@@H]2O[C@H](CO)[C@@H](O)[C@H]2O)n1.Cl`, `Cl.N=C(N)c1ncn([C@@H]2O[C@H](CO)[C@@H](O)[C@H]2O)n1` [TARIBAVIRIN HYDROCHLORIDE] is 1.5-fold lower in IC50: 24 µg/mL for the first, 16 µg/mL for the second.

Test system: Influenza A virus
Test: Compound was tested in vitro for antiviral activity against influenza B virus (Concentration required for the 50%inhibition of virus-induced cell death)
Assay type: functional, organism-based
Conditions: not given

`Cl.N=C(N)c1ncn([C@@H]2O[C@H](CO)[C@@H](O)[C@H]2O)n1` [TARIBAVIRIN HYDROCHLORIDE] showed an IC50 of 48 µg/mL.

Test system: dengue virus type 4
Test: Compound was tested in vitro for antiviral activity against dengue-4-virus (Concentration required for the 50%inhibition of virus-induced cell death)
Assay type: functional, organism-based
Conditions: not given

Going from `C/N=C(\NC)c1ncn([C@@H]2O[C@H](CO)[C@@H](O)[C@H]2O)n1.Cl` to `COC(=N)c1ncn([C@@H]2O[C@H](CO)[C@@H](O)[C@H]2O)n1`, the IC50 falls from 162 µg/mL to 76 µg/mL (≈ 294 µM) (2.1-fold).

Test system: not listed separately
Test: Therapeutic index is expressed as ratio of TC50/IC50
Conditions: not given

For `COC(=N)c1ncn([C@@H]2O[C@H](CO)[C@@H](O)[C@H]2O)n1`, the TI50 was 8.6 and 3.7 and > 3.3.

`CCCC/N=C(/N)c1ncn(C2O[C@H](CO)[C@@H](O)[C@H]2O)n1` (some centres undefined) gave a TI50 of 16.

Same assay, conditions: read-out: TI50

In the case of `CCCC/N=C(/N)c1ncn(C2O[C@H](CO)[C@@H](O)[C@H]2O)n1` (some centres undefined), the selectivity ratio is reported as 13.7.
